According to US7462600B2, “Macrolides” (Pfizer Inc, priority 2004, dated 2008):
In brackets after ≈: the same amount, converted by molar mass. Like-named read-outs stand apart in the source and are kept apart here.

What was measured:
Assay type in all cases: cell-based
[1] = system: Streptococcus pneumoniae 1016; experiment: MIC, microtiter broth dilution (NCCLS M100-S14), S. pneumoniae 1016 (susceptible)
Method: (§1) The assay described herein includes a panel of bacterial strains assembled to include a variety of target pathogenic species, including representatives of macrolide resistance mechanisms that have been characterized. In many cases, both the macrolide-susceptible parent strain and the macrolide-resistant strain derived from it are available to provide a more accurate assessment of the compound's ability to circumvent the resistance mechanism. The assay is performed in microtiter trays and interpreted according to Performance Standards for Antimicrobial Susceptibility Testing; 14th Informational Supplement (M100-S14), published by The National Committee for Clinical Laboratory Standards (NCCLS) guidelines; the MIC is used to compare strains. Compounds are initially dissolved in DMSO as 40 mg/ml stock solutions.

[2] = system: Haemophilus influenzae 1218; experiment: MIC, microtiter broth dilution (NCCLS M100-S14), H. influenzae 1218 (susceptible)
Method: as §1

[3] = system: Streptococcus pneumoniae 1175; conditions: microtiter broth dilution
Method: as §1

[4] = system: Streptococcus pneumoniae 1095; conditions: microtiter broth dilution
Method: as §1

[5] = system: Streptococcus pyogenes 1079; experiment: MIC, microtiter broth dilution (NCCLS M100-S14), S. pyogenes 1079 (ermB)
Method: as §1

[6] = S. pneumoniae 1016 (susceptible)
[7] = H. influenzae 1218 (susceptible)

Compound	MIC S. pneumo. 1016 [1, 6]	MIC H. influenzae 1218 [2, 7]	MIC S. pneumo. 1175 ([3]; S. pneumoniae 1175 (mefA))	MIC S. pneumo. 1095 ([4]; S. pneumoniae 1095 (ermB))	MIC S. pneumo. 1016 ([1]; Streptococcus pneumoniae 1016)	MIC H. influenzae 1218 ([2]; Haemophilus influenzae 1218)	MIC S. pyogenes 1079 ([5]; Streptococcus pyogenes 1079)	MIC S. pyogenes 1079 ([5]; S. pyogenes 1079 (ermB))	MIC S. pneumo. 1175 ([3]; Streptococcus pneumoniae 1175)	MIC S. pneumo. 1095 ([4]; Streptococcus pneumoniae 1095)
CCC1OC(=O)C(C)C(=O)C(C)C(OC2OC(C)CC(N(C)C)C2O)C(C)(OC)CC(C)C(=O)C(C)C2N(CC3CCN(Cc4cccc5cccnc45)C3)C(=O)OC12C (stereo not drawn) [11.12]	<0.06 µg/mL	<0.06 µg/mL	<0.06 µg/mL	<0.06 µg/mL						
CCC1OC(=O)C(C)C(=O)C(C)C(OC2OC(C)CC(N(C)C)C2O)C(C)(OC)CC(C)C(=O)C(C)C2N(C3CN(Cc4ccccc4OC(F)(F)F)C3)C(=O)OC12C (stereo not drawn) [Example 1.88, 3-descladinosyl-11,12-dideoxy-6-O-methyl-3-oxo-12,11-(oxycarbonyl-(1-(2-(trifluoromethoxy)benzene-1-methyl)-azetidin-3-yl)-imino)-erythromycin A]					<0.063 µg/mL	0.5 µg/mL (≈ 0.594 µM)	8 µg/mL (≈ 9.5 µM)			
CCC1OC(=O)C(C)C(=O)C(C)C(OC2OC(C)CC(N(C)C)C2O)C(C)(OC)CC(C)C(=O)C(C)C2N(CC3CCN(Cc4cccc5cnccc45)C3)C(=O)OC12C (stereo not drawn) [11.13]	<0.06 µg/mL	0.25 µg/mL (≈ 0.299 µM)	<0.06 µg/mL	<0.06 µg/mL						
CC[C@H]1OC(=O)[C@H](C)C(=O)[C@H](C)[C@@H](O[C@@H]2O[C@H](C)C[C@H](N(C)C)[C@H]2O)[C@](C)(OC)C[C@@H](C)C(=O)[C@H](C)[C@H]2N(CC3(C)CN(C(=O)c4ccnc5ccccc45)C3)C(=O)O[C@]12C.O=CO [6.13]	<0.06 µg/mL		<0.06 µg/mL	8 µg/mL				>64.00 µg/mL		
CC[C@H]1OC(=O)[C@H](C)C(=O)[C@H](C)[C@@H](O[C@@H]2O[C@H](C)C[C@H](N(C)C)[C@H]2O)[C@](C)(OC)C[C@@H](C)C(=O)[C@H](C)[C@H]2N(CC3(C)CN(C(=O)c4cc5cccnc5[nH]4)C3)C(=O)O[C@]12C [6.23]	<0.06 µg/mL		0.25 µg/mL (≈ 0.298 µM)	<0.06 µg/mL				64 µg/mL (≈ 76.2 µM)		
CCC1OC(=O)C(C)C(=O)C(C)C(OC2OC(C)CC(N(C)C)C2O)C(C)(OC)CC(C)C(=O)C(C)C2N(C3CN(Cc4ccc(F)c(F)c4)C3)C(=O)OC12C (stereo not drawn) [Example 1.08, 3,4-difluorobenzyl]					<0.06 µg/mL		>64.00 µg/mL		0.25 µg/mL (≈ 0.315 µM)	0.5 µg/mL (≈ 0.63 µM)
CC[C@H]1OC(=O)[C@H](C)C(=O)[C@H](C)[C@@H](O[C@@H]2O[C@H](C)C[C@H](N(C)C)[C@H]2O)[C@](C)(OC)C[C@@H](C)C(=O)[C@H](C)[C@H]2N(CC3(C)CN(C(=O)c4cccc5cccnc45)C3)C(=O)O[C@]12C.O=CO [6.17]	<0.06 µg/mL		0.12 µg/mL	>64.00 µg/mL				>64.00 µg/mL		
CC[C@H]1OC(=O)[C@H](C)C(=O)[C@H](C)[C@@H](O[C@@H]2O[C@H](C)C[C@H](N(C)C)[C@H]2O)[C@](C)(OC)C[C@@H](C)C(=O)[C@H](C)[C@H]2N(CC3(C)CN(C(=O)c4nc5ccccc5[nH]4)C3)C(=O)O[C@]12C.O=CO [6.18]	<0.06 µg/mL		0.25 µg/mL	0.25 µg/mL				>64.00 µg/mL		
CC[C@H]1OC(=O)[C@H](C)C(=O)[C@H](C)[C@@H](O[C@@H]2O[C@H](C)C[C@H](N(C)C)[C@H]2O)[C@](C)(OC)C[C@@H](C)C(=O)[C@H](C)[C@H]2N(CC3(C)CN(C(=O)c4cncc5ccccc45)C3)C(=O)O[C@]12C.O=CO [6.20]	<0.06 µg/mL		0.5 µg/mL	64 µg/mL				>64.00 µg/mL		
CCC1OC(=O)C(C)C(=O)C(C)C(OC2OC(C)CC(N(C)C)C2O)C(C)(OC)CC(C)C(=O)C(C)C2N(C3CN(Cc4ccc5ncccc5c4)C3)C(=O)OC12C (stereo not drawn) [Example 1.07, (quinolin-6-yl)methyl]					<0.06 µg/mL		16 µg/mL (≈ 19.8 µM)		0.25 µg/mL (≈ 0.309 µM)	<0.06 µg/mL
